Source: patent publication US10781224B2, “Bis(oxymethyl)phosphinic acid and biogenic metal salts thereof as regulators of plant growth and development” (priority 2016, dated 2020)

What was measured:
Assay type in all cases: in vivo
[1] = test system: corn (Krasnodar 385 MV variety); experiment: Corn seed treatment with BHMPA salts: germination energy and germination rate
How it was run: (§1)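 Corn, winter wheat and rice seeds (50 per dish, on filter paper) were soaked for 1 h in BHMPA or its metal salts at 1·10^−6-1·10^−12%, with water as control. Germination energy was read on day 4 and germination rate on day 8 for wheat and day 7 for rice and corn, following GOST 12038-84, as the mean of four replicates.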

[2] = test system: corn (Krasnodar 385 MV variety); experiment: Corn seed treatment with BHMPA salts: germinating power
How it was run: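 Seeds (50 per Petri dish on two layers of filter paper) soaked 1 h in BHMPA or its Ca, Mg, Na, Co, Mn, Cu or Zn salts at 1·10^−6-1·10^−12%, with water controls. Germination energy read on day 4, germination on day 8 (wheat) or day 7 (rice, corn), as % means of four replicates. Germinating power taken as root and sprout length plus wet and dry mass per 100 seedlings.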

rice (Diamant variety) = experiment: Rice seed treatment with BHMPA salts: germination energy and germination rate; conditions: for Germination energy / Germination rate: rice
How it was run: as §1

[3] = 1·10^−9% solution, listed as Zn
[4] = comparative study vs Melaphen, 1·10^−8% solution
[5] = corn seeds, solution concentration 1 · 10^−6%, zinc salt of BHMPA
[6] = corn seeds, solution concentration 1 · 10^−7%, zinc salt of BHMPA
[7] = corn seeds, solution concentration 1 · 10^−8%, zinc salt of BHMPA
[8] = corn seeds, solution concentration 1 · 10^−9%, zinc salt of BHMPA
[9] = corn seeds, solution concentration 1 · 10^−10%, zinc salt of BHMPA
[10] = corn seeds, solution concentration 1 · 10^−11%, zinc salt of BHMPA
[11] = corn seeds, solution concentration 1 · 10^−12%, zinc salt of BHMPA
[12] = rice seed treatment, solution 1 · 10^−10%

O=P([O-])(CO)CO.O=P([O-])(CO)CO.[Zn+2] [Zn-salt, Zinc BHMPA Salt]
Germination energy ([1]; 1·10^−6% solution): 77.7% | Germination rate ([1]; 1·10^−6% solution): 80.0% | Germination energy ([1]; 1·10^−7% solution): 84.0% | Germination rate ([1]; 1·10^−7% solution): 86.7% | Germination energy ([1]; 1·10^−8% solution): 88.3% | Germination rate ([1]; 1·10^−8% solution): 90.8% | Germination energy ([1]; 1·10^−9% solution): 88.3% | Germination rate ([1]; 1·10^−9% solution): 90.8% | Germination energy [1, 3]: 84.2% | Germination rate [1, 3]: 86.7% | Germination energy ([1]; 1·10^−10% solution): 82.3% | Germination rate ([1]; 1·10^−10% solution): 85.0% | Germination energy ([1]; 1·10^−11% solution): 80.7% | Germination rate ([1]; 1·10^−11% solution): 83.3% | Germination energy ([1]; 1·10^−12% solution): 79.0% | Germination rate ([1]; 1·10^−12% solution): 81.7% | Germination energy [1, 4]: 88.0% | Germination rate [1, 4]: 95.7% | optimum concentration for treating corn seeds before sowing ([2]; corn): 1·10^−8% | Length, root [2, 5]: 5.3 cm | Length, root, + % to control [2, 5]: 13% | Length, sprout [2, 5]: 3.4 cm | Length, sprout, + % to control [2, 5]: 3% | Mass, dry, root [2, 5]: 1.17 g/100 plantlings | Mass, dry, root, + % to control [2, 5]: 12.5% | Mass, dry, sprout [2, 5]: 0.97 g/100 plantlings | Mass, dry, sprout, + % to control [2, 5]: 13% | Mass, wet, root [2, 5]: 6.98 g/100 plantlings | Mass, wet, root, + % to control [2, 5]: 8.5% | Mass, wet, sprout [2, 5]: 5.99 g/100 plantlings | Mass, wet, sprout, + % to control [2, 5]: 5% | Length, root [2, 6]: 5.6 cm | Length, root, + % to control [2, 6]: 19% | Length, sprout [2, 6]: 3.5 cm | Length, sprout, + % to control [2, 6]: 6% | Mass, dry, root [2, 6]: 1.30 g/100 plantlings | Mass, dry, root, + % to control [2, 6]: 25% | Mass, dry, sprout [2, 6]: 1.10 g/100 plantlings | Mass, dry, sprout, + % to control [2, 6]: 28% | Mass, wet, root [2, 6]: 7.46 g/100 plantlings | Mass, wet, root, + % to control [2, 6]: 16% | Mass, wet, sprout [2, 6]: 7.03 g/100 plantlings | Mass, wet, sprout, + % to control [2, 6]: 24% | Length, root [2, 7]: 5.9 cm | Length, root, + % to control [2, 7]: 25.5% | Length, sprout [2, 7]: 4.0 cm | Mass, dry, root [2, 7]: 1.36 g/100 plantlings | Mass, dry, sprout [2, 7]: 1.13 g/100 plantlings | Mass, wet, root [2, 7]: 8.18 g/100 plantlings | Mass, wet, sprout [2, 7]: 7.82 g/100 plantlings | Length, root [2, 8]: 5.8 cm | Length, root, + % to control [2, 8]: 23% | Length, sprout [2, 8]: 3.8 cm | Length, sprout, + % to control [2, 8]: 15% | Mass, dry, root [2, 8]: 1.19 g/100 plantlings | Mass, dry, root, + % to control [2, 8]: 14% | Mass, dry, sprout [2, 8]: 1.06 g/100 plantlings | Mass, dry, sprout, + % to control [2, 8]: 23% | Mass, wet, root [2, 8]: 7.39 g/100 plantlings | Mass, wet, root, + % to control [2, 8]: 15% | Mass, wet, sprout [2, 8]: 6.99 g/100 plantlings | Mass, wet, sprout, + % to control [2, 8]: 23% | Length, root [2, 9]: 5.5 cm | Length, root, + % to control [2, 9]: 15% | Length, sprout [2, 9]: 3.7 cm | Length, sprout, + % to control [2, 9]: 12% | Mass, dry, root [2, 9]: 1.13 g/100 plantlings | Mass, dry, root, + % to control [2, 9]: 9% | Mass, dry, sprout [2, 9]: 1.00 g/100 plantlings | Mass, dry, sprout, + % to control [2, 9]: 16% | Mass, wet, root [2, 9]: 6.96 g/100 plantlings | Mass, wet, root, + % to control [2, 9]: 8% | Mass, wet, sprout [2, 9]: 6.29 g/100 plantlings | Mass, wet, sprout, + % to control [2, 9]: 11% | Length, root [2, 10]: 5.2 cm | Length, root, + % to control [2, 10]: 11% | Length, sprout [2, 10]: 3.6 cm | Length, sprout, + % to control [2, 10]: 9% | Mass, dry, root [2, 10]: 1.10 g/100 plantlings | Mass, dry, root, + % to control [2, 10]: 6% | Mass, dry, sprout [2, 10]: 0.97 g/100 plantlings | Mass, dry, sprout, + % to control [2, 10]: 13% | Mass, wet, root [2, 10]: 6.81 g/100 plantlings | Mass, wet, root, + % to control [2, 10]: 6% | Mass, wet, sprout [2, 10]: 5.93 g/100 plantlings | Mass, wet, sprout, + % to control [2, 10]: 4% | Length, root [2, 11]: 4.8 cm | Length, root, + % to control [2, 11]: 2% | Length, sprout [2, 11]: 3.5 cm | Length, sprout, + % to control [2, 11]: 6% | Mass, dry, root [2, 11]: 0.93 g/100 plantlings | Mass, dry, root, + % to control [2, 11]: −10.5% | Mass, dry, sprout [2, 11]: 0.89 g/100 plantlings | Mass, dry, sprout, + % to control [2, 11]: 3% | Mass, wet, root [2, 11]: 6.47 g/100 plantlings | Mass, wet, root, + % to control [2, 11]: 1% | Mass, wet, sprout [2, 11]: 5.71 g/100 plantlings | Mass, wet, sprout, + % to control [2, 11]: 0.5% | Length, root, + % to control ([2]; corn, 1·10^−8% solution): 25.5% | Length, sprout, + % to control ([2]; corn, 1·10^−8% solution): 21% | Mass, dry, root, + % to control ([2]; corn, 1·10^−8% solution): 31% | Mass, dry, sprout, + % to control ([2]; corn, 1·10^−8% solution): 31% | Mass, wet, root, + % to control ([2]; corn, 1·10^−8% solution): 27% | Mass, wet, sprout, + % to control ([2]; corn, 1·10^−8% solution): 38% | Germination energy, % (rice (Diamant variety); [12]): 89.5% | Germination rate, % (rice (Diamant variety); [12]): 96.5% | Germination energy (rice (Diamant variety); 1·10^−6% solution): 83.0% | Germination rate (rice (Diamant variety); 1·10^−6% solution): 89.0% | Germination energy (rice (Diamant variety); 1·10^−7% solution): 85.0% | Germination rate (rice (Diamant variety); 1·10^−7% solution): 91.7% | Germination energy (rice (Diamant variety); 1·10^−8% solution): 86.3% | Germination rate (rice (Diamant variety); 1·10^−8% solution): 94.3% | Germination energy (rice (Diamant variety); 1·10^−9% solution): 88.7% | Germination rate (rice (Diamant variety); 1·10^−9% solution): 96.0% | Germination energy (rice (Diamant variety); 1·10^−10% solution): 87.0% | Germination rate (rice (Diamant variety); 1·10^−10% solution): 94.0% | Germination energy (rice (Diamant variety); 1·10^−11% solution): 85.7% | Germination rate (rice (Diamant variety); 1·10^−11% solution): 91.3% | Germination energy (rice (Diamant variety); 1·10^−12% solution): 83.7% | Germination rate (rice (Diamant variety); 1·10^−12% solution): 89.0% | Germination energy (rice (Diamant variety); [4]): 89.5% | Germination rate (rice (Diamant variety); [4]): 96.5%
